From publication PMC11830572, “5‐hydroxymethylcytosine features of portal venous blood predict metachronous liver metastases of colorectal cancer and reveal phosphodiesterase 4 as a therapeutic target” (Clinical and Translational Medicine, 2025)
Entries after “also recorded” stand apart in the source; their conditions may differ. Read-outs that look alike come from different tables or passages of the source. Each block holds one compound with its values, some of them ahead of it.

Tests used:
[1] = system: HIF-1α, CCN2, p-AKT and p-ERK in MC38 cells; test: Western blot / immunofluorescence / mRNA of HIF-1α, CCN2, p-AKT, p-ERK in MC38 cells; assay type: cell-based, murine; conditions: for mRNA and protein levels of CCN2: HIF-1α inhibitor treatment
Procedure: Western blot was performed using the following antibodies: anti‐phospho‐ERK (CST, #4370), anti‐ERK (CST, #4695), anti‐phospho‐AKT (CST, #4060), anti‐AKT (CST, #9272), anti‐beta‐tubulin (CST, #86298), anti‐PDE4D (Abcam, ab171750) and anti‐CCN2 (Abcam, ab6992). […] The blots were blocked with 5% non‐fat milk and incubated overnight at 4°C with the primary antibody. Afterward, the blots were incubated for 1 h with the secondary antibody and subsequent imaging was carried out by BIO‐RAD Chemidoc MP imaging system. Relative protein levels were corrected for beta‐tubulin or beta‐actin.

MC38 cells [2] = test: Transwell migration assay, MC38; assay type: cell-based, murine
Procedure: To access cell migration, 1.0 × 10^5 cells were seeded into the 8‐µm‐pore upper chambers in serum‐free RPMI1640 and incubated in RPMI1640 with 10% FBS of the lower chamber of 12‐well plates (Corning Star). After normal culture for 24 h, cells were permeabilised with 100% methanol and then stained with .1% crystal violet.

PDE4 = PDE4 (Homo sapiens, UniProt Q08499); test: In vitro enzymatic activity assay: inhibitory activities of 2-arylbenzofurans towards PDE4 (3H-cAMP substrate); assay type: biochemical; conditions: for inhibition at 0.1 µM: read-out: PDE4 inhibition 100 nM
Sequence of PDE4 (Q08499 388-715): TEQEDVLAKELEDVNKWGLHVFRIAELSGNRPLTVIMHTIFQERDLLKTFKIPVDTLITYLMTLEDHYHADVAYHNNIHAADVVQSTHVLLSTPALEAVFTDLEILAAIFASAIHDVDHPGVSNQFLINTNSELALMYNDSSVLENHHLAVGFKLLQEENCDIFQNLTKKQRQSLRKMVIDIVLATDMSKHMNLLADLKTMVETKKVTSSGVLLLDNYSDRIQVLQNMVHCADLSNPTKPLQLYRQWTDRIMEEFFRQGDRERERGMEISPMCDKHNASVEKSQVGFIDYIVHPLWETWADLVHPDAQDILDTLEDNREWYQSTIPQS
Procedure: Protocols for the expression and enzyme assay of PDE isoforms were similar to our previous works.[98], [99], [100] Briefly, the recombinant plasmid was transformed into Escherichia coli competent cells BL21 (CodonPlus) and cultured in LB medium at 37°C until the optical density at 600 nm (A600) reached .6–.8. Induction of protein expression was achieved by adding .1 mM isopropyl β‐D‐thiogalactopyranoside (IPTG), followed by further incubation at 15°C for 24 h. The recombinant proteins were then purified using a Ni‐NTA column (Qiagen), a Q column (GE Healthcare), and a Superdex 100 column (GE Healthcare), and Superdex 100 column (GE Healthcare). The enzymatic activities of PDEs were measured by using ^3H‐cAMP or ^3H‐cGMP (GE Healthcare) as substrates. The assay buffer contains 20 mM Tris‐HCl (pH 7.5), 10 mM MgCl2 or 4.0 mM MnCl2, 1.0 mM dithiothreitol, and 10–30 nM ^3H‐cAMP or ^3H‐cGMP (20 000–30 000 cpm/assay). The reaction was conducted at room temperature for 15 min and then terminated by adding .2 M ZnSO4. The reaction products, 3H‐AMP or 3H‐GMP, were precipitated with .2 N Ba(OH)2, while unreacted 3H‐cAMP or 3H‐cGMP remained in the supernatant. […] For the measurement of IC50, eight concentrations at least were used and IC50 values were calculated by the nonlinear regression.

PDE5A1 (535-860) = PDE5A1 (535-860) (Homo sapiens, UniProt O76074); test: In vitro enzymatic activity assay, PDE selectivity panel: PDE5A1; assay type: biochemical
Procedure: (§2) Briefly, the recombinant plasmid was transformed into Escherichia coli competent cells BL21 (CodonPlus) and cultured in LB medium at 37°C until the optical density at 600 nm (A600) reached .6–.8. Induction of protein expression was achieved by adding .1 mM isopropyl β‐D‐thiogalactopyranoside (IPTG), followed by further incubation at 15°C for 24 h. The recombinant proteins were then purified using a Ni‐NTA column (Qiagen), a Q column (GE Healthcare), and a Superdex 100 column (GE Healthcare), and Superdex 100 column (GE Healthcare). The enzymatic activities of PDEs were measured by using ^3H‐cAMP or ^3H‐cGMP (GE Healthcare) as substrates. The assay buffer contains 20 mM Tris‐HCl (pH 7.5), 10 mM MgCl2 or 4.0 mM MnCl2, 1.0 mM dithiothreitol, and 10–30 nM ^3H‐cAMP or ^3H‐cGMP (20 000–30 000 cpm/assay). The reaction was conducted at room temperature for 15 min and then terminated by adding .2 M ZnSO4. The reaction products, 3H‐AMP or 3H‐GMP, were precipitated with .2 N Ba(OH)2, while unreacted 3H‐cAMP or 3H‐cGMP remained in the supernatant. The radioactivity of the supernatant was measured in 2.5 mL of Ultima Gold liquid scintillation cocktail (Fisher Scientific) using a PerkinElmer 2910 liquid scintillation counter. For the measurement of IC50, eight concentrations at least were used and IC50 values were calculated by the nonlinear regression.

PDE7A1 (130-482) = PDE7A1 (130-482) (Homo sapiens, UniProt Q13946); test: In vitro enzymatic activity assay, PDE selectivity panel: PDE7A1; assay type: biochemical
Sequence of PDE7A1 (130-482) (Q13946 130-482): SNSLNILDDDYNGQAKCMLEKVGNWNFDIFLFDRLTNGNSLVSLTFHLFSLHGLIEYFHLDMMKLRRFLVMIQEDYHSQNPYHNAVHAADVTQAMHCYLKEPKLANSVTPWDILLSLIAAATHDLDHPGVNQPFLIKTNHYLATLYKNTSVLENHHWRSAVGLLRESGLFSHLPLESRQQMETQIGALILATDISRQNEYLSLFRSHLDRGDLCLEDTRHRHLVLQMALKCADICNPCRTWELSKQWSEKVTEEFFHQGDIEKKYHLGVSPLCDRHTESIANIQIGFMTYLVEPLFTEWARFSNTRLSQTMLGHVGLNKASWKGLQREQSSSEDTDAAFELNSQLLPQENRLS
Procedure: as §2

MC38 cells [3] = test: Cell viability assay (CCK8); assay type: cell-based, murine
Procedure: A total of 2000–5000 cells were seeded in 96‐well plates for an overnight culture. The medium was then replaced with fresh medium supplemented with varying concentrations of drugs. […]

MC38 liver metastases = test: Liver metastasis model, intrasplenic injection of MC38-Luc cells; assay type: in vivo, mice; conditions: for bioluminescence of mice in the liver: day 18
Procedure: (§1) A murine colon cancer cell line (MC38) stably transfected with the firefly luciferase (Luc) gene (Addgene plasmid #17477) was generated. To establish a model of liver metastases mice were anaesthetised with ketamine. Then the spleens were exposed to allow direct intrasplenic injections of 5 × 10^5 Luc‐labelled MC38 (MC38‐Luci) cells in 50 µL 1 mM EDTA in PBS. Mice were sacrificed 18 days after injection of the tumour cells, then spleen and liver were analysed immediately. For ex vivo imaging, female mice were administered by intraperitoneal injection with d‐luciferin (150 mg/kg; Perkin Elmer). Ten minutes later, mice were sacrificed, the livers were collected and […] the ex vivo IVIS Lumina III system (Perkin Elmer). Collected images were analysed using Living Image 4.3.1 software (Perkin Elmer): ROIs were drawn around each liver and radiant efficiency calculated.

[4] = Safety in liver metastasis model mice (body weight curve, H&E of heart, lung, kidney); assay type: in vivo
Procedure: as §1

[5] = Emetic assay on beagle dogs; assay type: in vivo
Procedure: All animal care and experimental protocols were conducted in accordance with the Guide for the Care and Use of Laboratory Animals (National Institutes of Health Publication, revised 1996, no. 86‐23, Bethesda, MD) and were approved by the Institutional Animal Research Ethics Committee of Sun Yat‐Sen University. (IACUC numbers: […]‐2021‐000130). […] Animals are watched continuously for 180 min for the behaviour of retching, excessive salivation, and vomiting.

PDE1B (10-487) = PDE1B (10-487) (Homo sapiens, UniProt Q01064); test: biochemical
Sequence of PDE1B (10-487) (Q01064 10-487): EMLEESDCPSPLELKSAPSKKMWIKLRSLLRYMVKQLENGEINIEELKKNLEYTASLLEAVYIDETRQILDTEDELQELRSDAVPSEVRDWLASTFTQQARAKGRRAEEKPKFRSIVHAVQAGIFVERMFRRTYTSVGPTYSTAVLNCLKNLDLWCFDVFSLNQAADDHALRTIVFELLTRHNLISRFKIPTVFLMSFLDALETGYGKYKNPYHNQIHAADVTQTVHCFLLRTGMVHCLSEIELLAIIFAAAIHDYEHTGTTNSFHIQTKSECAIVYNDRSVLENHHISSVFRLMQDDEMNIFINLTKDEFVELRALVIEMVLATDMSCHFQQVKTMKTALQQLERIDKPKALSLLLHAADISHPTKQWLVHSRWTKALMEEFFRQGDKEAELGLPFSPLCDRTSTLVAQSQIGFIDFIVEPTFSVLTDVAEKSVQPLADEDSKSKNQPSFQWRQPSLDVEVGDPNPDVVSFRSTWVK
Procedure: as §2

PDE3A (679-1087) = PDE3A (679-1087) (Homo sapiens, UniProt Q14432); test: biochemical
Sequence of PDE3A (679-1087) (Q14432 679-1087): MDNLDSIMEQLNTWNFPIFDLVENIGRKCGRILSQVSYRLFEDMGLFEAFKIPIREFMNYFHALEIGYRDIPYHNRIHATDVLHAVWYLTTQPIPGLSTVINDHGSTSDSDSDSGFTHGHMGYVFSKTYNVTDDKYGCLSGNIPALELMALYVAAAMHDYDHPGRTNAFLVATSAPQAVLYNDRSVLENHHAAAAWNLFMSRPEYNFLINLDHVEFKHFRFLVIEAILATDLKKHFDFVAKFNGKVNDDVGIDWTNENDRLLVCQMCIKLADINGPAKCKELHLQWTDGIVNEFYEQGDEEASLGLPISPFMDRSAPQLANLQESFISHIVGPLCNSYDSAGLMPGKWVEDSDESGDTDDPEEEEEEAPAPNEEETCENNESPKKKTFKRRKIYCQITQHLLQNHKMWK
Procedure: as §2

[6] = 2-week repeated administration in rats: overall long-term safety
PDE4B2 = system: PDE4B2; parameters: method as in PMID 22483586; conditions: cited from earlier work
PDE4D2 = system: PDE4D2; parameters: method as in PMID 22483586; conditions: cited from earlier work
MC38 cells [7] = test: Wound healing scratch migration assay; assay type: cell-based, murine; conditions: 24 h and 48 h
Procedure: For migration assays (wound healing assays), cells were seeded in 6‐well plates and grown until confluence. Cells were scraped in each well, the medium was replaced with medium with 2% FBS to block cell proliferation. After 24 h or 48 h, the photographs of each well were obtained.

MC38 cells [8] = test: RNA sequencing of treated MC38 cells; assay type: cell-based, murine
Procedure: RNA integrity was assessed using the RNA Nano 6000 Assay Kit on the Bioanalyzer 2100 system (Agilent Technologies, CA, USA). Total RNA was used as input for RNA sample preparation. Briefly, mRNA was purified from total RNA using poly‐T oligo‐attached magnetic beads. Fragmentation was performed using divalent cations at elevated temperature in First Strand Synthesis Reaction Buffer (5X). First‐strand cDNA was synthesised using a random hexamer primer and M‐MuLV Reverse Transcriptase (RNase H‐). Second‐strand cDNA synthesis was then carried out using DNA Polymerase I and RNase H. The remaining overhangs were converted to blunt ends via exonuclease/polymerase activities. After adenylation of the 3′ ends of the DNA fragments, adaptors with a hairpin loop structure were ligated to prepare for hybridisation. To select cDNA fragments in the preferred size range of 370–420 bp, the library fragments were purified using the AMPure XP system (Beckman Coulter, Beverly, USA). PCR amplification was performed using Phusion High‐Fidelity DNA polymerase, universal PCR primers, and an index (X) primer. The PCR products were then purified again using the AMPure XP system, and the library quality was assessed on the Agilent Bioanalyzer 2100 system. […] After cluster generation, the library preparations were sequenced on the Illumina NovaSeq platform, generating 150 bp paired‐end reads.

[9] = mice, MC38-Luc intrasplenic, two weeks of treatment

Structure (SMILES): COc1cc2c(cc1O)CC[C@@H]1[C@@H]2CC[C@]2(C)[C@@H](O)CC[C@@H]12 [2‐MEOE2]
mRNA and protein levels of CCN2 [1]: significant decrease

Structure (SMILES): C=C[C@@]1(C)CC(=O)[C@]2(O)[C@@]3(C)[C@@H](O)CCC(C)(C)[C@@H]3[C@H](O)[C@H](OC(C)=O)[C@@]2(C)O1 [FSK, forskolin]
migration, transwell assay (MC38 cells [2]): quantitatively similar to those of roflumilast
levels of CCN2, p-AKT and p-ERK [1]: significantly inhibited

Structure (SMILES): O=S(=O)(NCCSSCCNS(=O)(=O)c1cc(Cl)ccc1Cl)c1cc(Cl)ccc1Cl [KC7F2]
mRNA and protein levels of CCN2 [1]: significant decrease

inhibition at 1 µM (PDE4): 55.7%
inhibition at 0.1 µM (PDE4): 41.9%
Structure (SMILES): COc1cccc(Nc2cc(-c3cc4ccccc4o3)ccc2C(N)=O)c1 [L1]

IC50 (PDE4): 0.181 ± 0.013 µM
inhibition at 1 µM (PDE4): 68.5%
inhibition at 0.1 µM (PDE4): 48.6%
Structure (SMILES): COc1cccc(Nc2cc(-c3cc4ccc(O)cc4o3)ccc2C(N)=O)c1 [L2]

inhibition at 1 µM (PDE4): 24.1%
inhibition at 0.1 µM (PDE4): 17%
Structure (SMILES): COc1cccc(Nc2cc(-c3cc4cc(OC)ccc4o3)ccc2C(N)=O)c1 [L3]

inhibition at 1 µM (PDE4): 59.5%
inhibition at 0.1 µM (PDE4): 28.9%
Structure (SMILES): COc1cccc(Nc2cc(-c3cc4cccc(OC)c4o3)ccc2C(N)=O)c1 [L4]

inhibition at 1 µM (PDE4): 36.9%
inhibition at 0.1 µM (PDE4): 15.9%
Structure (SMILES): COc1cccc(Nc2cc(-c3cc4ccc(Cl)cc4o3)ccc2C(N)=O)c1 [L5]

inhibition at 1 µM (PDE4): 55.5%
inhibition at 0.1 µM (PDE4): 30.3%
Structure (SMILES): COc1cccc(Nc2cc(-c3cc4cc(F)ccc4o3)ccc2C(N)=O)c1 [L6]

IC50 (PDE4): 0.197 ± 0.0374 µM
inhibition at 1 µM (PDE4): 77.5%
inhibition at 0.1 µM (PDE4): 44.1%
Structure (SMILES): NC(=O)c1ccc(-c2cc3ccc(O)cc3o2)cc1Nc1cccc(Cl)c1 [L7]

inhibition at 1 µM (PDE4): 61.6%
inhibition at 0.1 µM (PDE4): 30.6%
Structure (SMILES): NC(=O)c1ccc(-c2cc3ccc(O)cc3o2)cc1Nc1cccc(F)c1 [L8]

inhibition at 1 µM (PDE4): 65.8%
inhibition at 0.1 µM (PDE4): 39.1%
Structure (SMILES): NC(=O)c1ccc(-c2cc3ccc(O)cc3o2)cc1Nc1cc(F)cc(F)c1 [L9]

inhibition at 1 µM (PDE4): 37.4%
Structure (SMILES): FC(F)Oc1ccc(-c2cc3ccccc3o2)cc1OCC1CC1 [L10]

Structure (SMILES): Oc1ccc2cc(-c3ccc(OC(F)F)c(OCC4CC4)c3)oc2c1 [L11]
IC50 (PDE5A1 (535-860)): 3 µM
IC50 (PDE7A1 (130-482)): 2.29 µM
cell viability / growth (CCK8 assay) (MC38 cells [3]): significantly inhibit the growth
IC50 (MC38 cells [3]; Mus musculus, MC-38): ~20 µM
levels of CCN2, p-AKT and p-ERK [1]: significantly repressed
bioluminescence of mice in the liver (MC38 liver metastases): significant decrease
liver metastases (liver images and bioluminescence images) (MC38 liver metastases; [9]): significantly inhibit tumour metastases
metastatic areas in the liver (H&E staining) (MC38 liver metastases; mice, after treatment): significantly suppressed liver metastases
safety: body weight and H&E of heart, lung and kidney [4]: safety of compound L11 was observed; also recorded: could not induce weight loss or any major organ damage
No. of animals with emesis/No. of test animals ([5]; 10 mg/kg po): 0/3
emetic activity ([5]; oral dose of 10 mg/kg): did not induce emetic effects
IC50 (PDE1B (10-487)): > 10 µM
IC50 (PDE3A (679-1087)): > 10 µM
food intake, weight, haematology indicators and serum test indicators ([6]; 30 mg/kg or 100 mg/kg intraperitoneal injection for 2 weeks): no abnormal changes
adverse effects on body weight or other signs of overt toxicity ([6]; daily doses of up to 100 mg/kg for 2 weeks): did not cause any adverse effects

IC50 (PDE4): 0.91 µM
inhibition at 1 µM (PDE4): 73.3%
inhibition at 0.1 µM (PDE4): 13.2%
Structure (SMILES): FC(F)Oc1ccc(-c2cc3ccccc3o2)cc1OC1CCCC1 [L12]

IC50 (PDE4): 0.145 ± 0.0023 µM
inhibition at 1 µM (PDE4): 92.2%
inhibition at 0.1 µM (PDE4): 42.7%
Structure (SMILES): Oc1ccc2cc(-c3ccc(OC(F)F)c(OC4CCCC4)c3)oc2c1 [L13]

Structure (SMILES): NC1(c2ccc(-c3nc4ccn5c(=O)[nH]nc5c4cc3-c3ccccc3)cc2)CCC1 [MK2206]
migration, transwell assay (MC38 cells [2]): significantly inhibit MC38 metastases

Structure (SMILES): Oc1cc(O)cc(-c2cc3ccc(O)cc3o2)c1 [Moracin M]
IC50 (PDE4B2): 4.5 µM
IC50 (PDE4D2): 2.9 µM

Structure (SMILES): COc1cccc(-c2cc(=O)c3ccccc3o2)c1N [PD98095]
migration, transwell assay (MC38 cells [2]): significantly inhibit MC38 metastases

Structure (SMILES): O=C(Nc1c(Cl)cncc1Cl)c1ccc(OC(F)F)c(OCC2CC2)c1 [Roflumilast, roflumilast]
cell viability / growth (CCK8 assay) (MC38 cells [3]): less toxicity
migration, scratch wound closure (MC38 cells [7]): significantly inhibited the migration
migration, transwell assay (MC38 cells [2]; combined with siCCN2): could not inhibit tumour metastases
migration, transwell assay (MC38 cells [2]; combined with siHIF1A): Same result
HIF-1α and CCN2 expression levels (western blot) ([1]; 24 h): inhibited
protein level of CCN2 (immunofluorescence) ([1]; 48 h): decreased significantly
expression of eight cell adhesion pathway genes (CCN2, LAMB3, EGFL7, EPHA8, COL7A1, AMIGO2, COL6A3, CDH26) (MC38 cells [8]): relatively low expression
bioluminescence of mice in the liver (MC38 liver metastases): significant decrease
liver metastases (liver images and bioluminescence images) (MC38 liver metastases; [9]): fewer metastatic lesions
metastasis sites, liver total flux (and liver weight), quantitative statistics (MC38 liver metastases; [9]): could inhibit liver metastasis
No. of animals with emesis/No. of test animals ([5]; 1.0 mg/kg po): 3/3
